Experimental data as given in PubChem BioAssay AID1963844 (Molecular Pharmacology Branch, DTP, NCI, 2024).

Tested on: 422866-222-R5-J1-PDC complex spheroid viability
Test: Anticancer human tumor 422866-222-R5-J1-PDC patient-derived pancreatic adenocarcinoma cell line growth inhibition [POLQ]
Details: for IC50: curve of first compound; for viability, T/C: stronger effect = lower value
How it was run: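 Patient-derived tumour cells were co-cultured with HUVEC and mesenchymal stem cells as multicellular spheroids at 37 °C. They were treated with POLQ inhibitors (novobiocin, ART-558, RP6685) alone or combined with other agents. Top concentrations were at or near clinical Cmax (otherwise 10 microM; SN-38 at 1 microM), decreasing in half-log steps.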

[1] = second compound 0.0316 µM, first compound 0.0316 µM
[2] = second compound 0.0316 µM, first compound 0.1 µM
[3] = second compound 0.0316 µM, first compound 0.316 µM
[4] = second compound 0.0316 µM, first compound 1 µM
[5] = second compound 0.0316 µM, first compound 3.16 µM
[6] = second compound 0.0316 µM, first compound 10 µM
[7] = second compound 0.1 µM, first compound 0.0316 µM
[8] = second compound 0.1 µM, first compound 0.1 µM
[9] = second compound 0.1 µM, first compound 0.316 µM
[10] = second compound 0.1 µM, first compound 1 µM
[11] = second compound 0.1 µM, first compound 3.16 µM
[12] = second compound 0.1 µM, first compound 10 µM
[13] = second compound 0.316 µM, first compound 0.0316 µM
[14] = second compound 0.316 µM, first compound 0.1 µM
[15] = second compound 0.316 µM, first compound 0.316 µM
[16] = second compound 0.316 µM, first compound 1 µM
[17] = second compound 0.316 µM, first compound 3.16 µM
[18] = second compound 0.316 µM, first compound 10 µM
[19] = second compound 1 µM, first compound 0.0316 µM
[20] = second compound 1 µM, first compound 0.1 µM
[21] = second compound 1 µM, first compound 0.316 µM
[22] = second compound 1 µM, first compound 1 µM
[23] = second compound 1 µM, first compound 3.16 µM
[24] = second compound 1 µM, first compound 10 µM
[25] = second compound 3.16 µM, first compound 0.0316 µM
[26] = second compound 3.16 µM, first compound 0.1 µM
[27] = second compound 3.16 µM, first compound 0.316 µM
[28] = second compound 3.16 µM, first compound 1 µM
[29] = second compound 3.16 µM, first compound 3.16 µM
[30] = second compound 3.16 µM, first compound 10 µM
[31] = second compound 10 µM, first compound 0.0316 µM
[32] = second compound 10 µM, first compound 0.1 µM
[33] = second compound 10 µM, first compound 0.316 µM
[34] = second compound 10 µM, first compound 1 µM
[35] = second compound 10 µM, first compound 3.16 µM
[36] = second compound 10 µM, first compound 10 µM
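Note: spheroids exposed to compounds for one week before readout.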
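Throughout, for viability, T/C: percent of DMSO vehicle wells luminescence so 100% = untreated viability.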

C#Cc1c(F)ccc2cc(O)cc(-c3ncc4c(N5CC6CCC(C5)N6)nc(OCC56CCCN5CC(F)C6)nc4c3F)c12 (stereo not drawn) + COC1C(OC(N)=O)C(O)C(Oc2ccc3c(O)c(NC(=O)c4ccc(O)c(CC=C(C)C)c4)c(=O)oc3c2C)OC1(C)C
IC50 (second compound 0.0316 µM): 0.715 µM | IC50 (second compound 0.1 µM): 0.78 µM | IC50 (second compound 0.316 µM): 0.75 µM | IC50 (second compound 1 µM): 0.859 µM | IC50 (second compound 3.16 µM): 0.664 µM | IC50 (second compound 10 µM): 0.81 µM | viability, T/C [1]: 95.7% | viability, T/C [2]: 78.9% | viability, T/C [3]: 59.6% | viability, T/C [4]: 46.2% | viability, T/C [5]: 35.9% | viability, T/C [6]: 29.8% | viability, T/C [7]: 92.5% | viability, T/C [8]: 86.3% | viability, T/C [9]: 66.5% | viability, T/C [10]: 46.1% | viability, T/C [11]: 34.2% | viability, T/C [12]: 32.8% | viability, T/C [13]: 99.5% | viability, T/C [14]: 85.8% | viability, T/C [15]: 66.2% | viability, T/C [16]: 45.2% | viability, T/C [17]: 31.4% | viability, T/C [18]: 28.8% | viability, T/C [19]: 106% | viability, T/C [20]: 102% | viability, T/C [21]: 73.4% | viability, T/C [22]: 46.9% | viability, T/C [23]: 37% | viability, T/C [24]: 32% | viability, T/C [25]: 93.3% | viability, T/C [26]: 93.9% | viability, T/C [27]: 67.1% | viability, T/C [28]: 40.9% | viability, T/C [29]: 36.9% | viability, T/C [30]: 30.3% | viability, T/C [31]: 96.1% | viability, T/C [32]: 86.1% | viability, T/C [33]: 64.7% | viability, T/C [34]: 47.6% | viability, T/C [35]: 33.7% | viability, T/C [36]: 29.4%

CC1COCCN1c1cc(C2(O)CC3CCC(C2)O3)c2cnn(-c3ccn[nH]3)c2n1 (stereo not drawn) + COC1C(OC(N)=O)C(O)C(Oc2ccc3c(O)c(NC(=O)c4ccc(O)c(CC=C(C)C)c4)c(=O)oc3c2C)OC1(C)C
IC50 (second compound 0.0316 µM): > 10 µM | IC50 (second compound 0.1 µM): > 10 µM | IC50 (second compound 0.316 µM): < 0.0316 µM | IC50 (second compound 1 µM): > 10 µM | IC50 (second compound 3.16 µM): > 10 µM | IC50 (second compound 10 µM): > 10 µM | viability, T/C [1]: 71.4% | viability, T/C [2]: 47.9% | viability, T/C [3]: 45.8% | viability, T/C [4]: 83.7% | viability, T/C [5]: 70.7% | viability, T/C [6]: 79.8% | viability, T/C [7]: 73.5% | viability, T/C [8]: 47% | viability, T/C [9]: 41.9% | viability, T/C [10]: 65.3% | viability, T/C [11]: 76.8% | viability, T/C [12]: 66.4% | viability, T/C [13]: 72.9% | viability, T/C [14]: 36.2% | viability, T/C [15]: 37% | viability, T/C [16]: 77.8% | viability, T/C [17]: 71.5% | viability, T/C [18]: 71.7% | viability, T/C [19]: 75.6% | viability, T/C [20]: 45.3% | viability, T/C [21]: 47.8% | viability, T/C [22]: 77.7% | viability, T/C [23]: 63.4% | viability, T/C [24]: 77.7% | viability, T/C [25]: 84.3% | viability, T/C [26]: 44.4% | viability, T/C [27]: 48% | viability, T/C [28]: 75.2% | viability, T/C [29]: 67.5% | viability, T/C [30]: 71.1% | viability, T/C [31]: 79.1% | viability, T/C [32]: 52.7% | viability, T/C [33]: 40.7% | viability, T/C [34]: 82.9% | viability, T/C [35]: 75.2% | viability, T/C [36]: 65.6%

CCc1cc2c(N3CCc4c(cc(Cn5ccnc5)cc4-c4cn(C)nc4C(F)(F)F)C3=O)cc(C)nc2c(OC)n1 + COC1C(OC(N)=O)C(O)C(Oc2ccc3c(O)c(NC(=O)c4ccc(O)c(CC=C(C)C)c4)c(=O)oc3c2C)OC1(C)C
IC50 (second compound 0.0316 µM): > 10 µM | IC50 (second compound 0.1 µM): > 10 µM | IC50 (second compound 0.316 µM): > 10 µM | IC50 (second compound 1 µM): > 10 µM | IC50 (second compound 3.16 µM): > 10 µM | IC50 (second compound 10 µM): > 10 µM | viability, T/C [1]: 96.1% | viability, T/C [2]: 95.7% | viability, T/C [3]: 92.4% | viability, T/C [4]: 129% | viability, T/C [5]: 125% | viability, T/C [6]: 119% | viability, T/C [7]: 100% | viability, T/C [8]: 88.8% | viability, T/C [9]: 94.6% | viability, T/C [10]: 126% | viability, T/C [11]: 110% | viability, T/C [12]: 93.7% | viability, T/C [13]: 93.7% | viability, T/C [14]: 94.5% | viability, T/C [15]: 108% | viability, T/C [16]: 102% | viability, T/C [17]: 102% | viability, T/C [18]: 111% | viability, T/C [19]: 97.7% | viability, T/C [20]: 98% | viability, T/C [21]: 96.5% | viability, T/C [22]: 92.8% | viability, T/C [23]: 121% | viability, T/C [24]: 108% | viability, T/C [25]: 102% | viability, T/C [26]: 101% | viability, T/C [27]: 123% | viability, T/C [28]: 106% | viability, T/C [29]: 123% | viability, T/C [30]: 116% | viability, T/C [31]: 102% | viability, T/C [32]: 85.6% | viability, T/C [33]: 106% | viability, T/C [34]: 95.1% | viability, T/C [35]: 109% | viability, T/C [36]: 102%

O=C(Nc1ccc(O)c(NS(=O)(=O)c2ccc(F)cc2)c1)c1ccc(-c2ccccc2)cc1 + COC1C(OC(N)=O)C(O)C(Oc2ccc3c(O)c(NC(=O)c4ccc(O)c(CC=C(C)C)c4)c(=O)oc3c2C)OC1(C)C
IC50 (second compound 0.0316 µM): > 10 µM | IC50 (second compound 0.1 µM): > 10 µM | IC50 (second compound 0.316 µM): > 10 µM | IC50 (second compound 1 µM): > 10 µM | IC50 (second compound 3.16 µM): > 10 µM | IC50 (second compound 10 µM): > 10 µM | viability, T/C [1]: 99.6% | viability, T/C [2]: 101% | viability, T/C [3]: 77.7% | viability, T/C [4]: 94.6% | viability, T/C [5]: 96.1% | viability, T/C [6]: 126% | viability, T/C [7]: 92.2% | viability, T/C [8]: 87.3% | viability, T/C [9]: 83.3% | viability, T/C [10]: 95.2% | viability, T/C [11]: 88.8% | viability, T/C [12]: 133% | viability, T/C [13]: 92.4% | viability, T/C [14]: 88% | viability, T/C [15]: 84% | viability, T/C [16]: 99.5% | viability, T/C [17]: 93% | viability, T/C [18]: 123% | viability, T/C [19]: 106% | viability, T/C [20]: 95% | viability, T/C [21]: 83.7% | viability, T/C [22]: 84.9% | viability, T/C [23]: 97.7% | viability, T/C [24]: 125% | viability, T/C [25]: 93.8% | viability, T/C [26]: 100% | viability, T/C [27]: 103% | viability, T/C [28]: 89.2% | viability, T/C [29]: 103% | viability, T/C [30]: 124% | viability, T/C [31]: 95.8% | viability, T/C [32]: 80.9% | viability, T/C [33]: 87.4% | viability, T/C [34]: 85% | viability, T/C [35]: 96.4% | viability, T/C [36]: 133%
